What all share (assay type): biochemical
The target of one assay is JAK2 (Homo sapiens (Human), UniProt O60674). The assay can be described thus: JAK Caliper Enzyme Assay at 1 mM ATP, JAK2. In a few lines:
(§1)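 Mobility-shift microfluidic read-out: substrate and phosphopeptide peaks separated, % conversion = product/(product+substrate). Reaction used recombinant human kinase domain, synthetic peptide, 1 mM ATP, RT incubation to 20–30% turnover, quenched with EDTA. Percent effect versus DMSO and positive controls, plotted against concentration.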

Another assay addresses TYK2 (Homo sapiens (Human), UniProt P29597). Description: JAK Caliper Enzyme Assay at 1 mM ATP, TYK2. The procedure, abridged: as §1
Another assay addresses JAK1 (Homo sapiens (Human), UniProt P23458). The assay can be described thus: JAK Caliper Enzyme Assay at 1 mM ATP, JAK1. The procedure, abridged: (§2)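 Recombinant human kinase domains phosphorylated a fluorescent synthetic peptide at room temperature, with enzyme level and time tuned to 20% to 30% conversion; EDTA stop buffer ended reactions. Mobility-shift separation gave percent product from peak heights, normalised to DMSO and positive controls, and IC50s came from concentration–effect curves.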

For a further assay, the target named is JAK3 (Homo sapiens (Human), UniProt P52333). The assay can be described thus: JAK Caliper Enzyme Assay at 1 mM ATP, JAK3. In a few lines:
as §2

Sequence of JAK2 (O60674 849-1124): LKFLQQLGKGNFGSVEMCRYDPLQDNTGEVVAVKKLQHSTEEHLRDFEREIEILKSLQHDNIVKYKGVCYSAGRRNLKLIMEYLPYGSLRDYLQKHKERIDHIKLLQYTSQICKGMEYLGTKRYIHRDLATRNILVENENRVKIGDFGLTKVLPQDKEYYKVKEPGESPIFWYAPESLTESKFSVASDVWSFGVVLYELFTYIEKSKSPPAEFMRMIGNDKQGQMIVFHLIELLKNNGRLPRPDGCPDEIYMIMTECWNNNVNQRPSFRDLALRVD
Sequence of JAK3 (P52333 822-1111): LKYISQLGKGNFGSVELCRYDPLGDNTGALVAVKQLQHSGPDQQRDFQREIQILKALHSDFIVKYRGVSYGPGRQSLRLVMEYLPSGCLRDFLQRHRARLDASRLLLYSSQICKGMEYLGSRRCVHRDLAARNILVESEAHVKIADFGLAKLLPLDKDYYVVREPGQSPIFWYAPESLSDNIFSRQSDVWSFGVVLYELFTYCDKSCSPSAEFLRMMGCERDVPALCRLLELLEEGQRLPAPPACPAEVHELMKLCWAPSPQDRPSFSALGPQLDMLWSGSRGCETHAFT
Sequence of JAK1 (P23458 875-1153): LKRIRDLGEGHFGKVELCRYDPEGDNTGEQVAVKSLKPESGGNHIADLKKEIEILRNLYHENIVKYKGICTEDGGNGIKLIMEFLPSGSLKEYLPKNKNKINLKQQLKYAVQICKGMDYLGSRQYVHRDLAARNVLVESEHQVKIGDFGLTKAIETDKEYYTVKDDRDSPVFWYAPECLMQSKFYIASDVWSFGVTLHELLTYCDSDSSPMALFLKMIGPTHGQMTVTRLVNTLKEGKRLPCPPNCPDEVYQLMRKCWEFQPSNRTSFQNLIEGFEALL
Sequence of TYK2 (P29597 897-1176): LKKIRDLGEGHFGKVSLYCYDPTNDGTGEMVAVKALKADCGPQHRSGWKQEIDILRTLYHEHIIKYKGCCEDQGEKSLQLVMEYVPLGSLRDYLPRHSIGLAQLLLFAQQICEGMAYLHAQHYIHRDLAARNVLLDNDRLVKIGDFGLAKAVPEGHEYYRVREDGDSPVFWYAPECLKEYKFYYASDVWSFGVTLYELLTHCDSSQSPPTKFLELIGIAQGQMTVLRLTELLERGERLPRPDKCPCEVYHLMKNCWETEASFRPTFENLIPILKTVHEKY

As for `N#CC[C@]1(n2ccc(-c3nc(-c4ccc(O)c(C(N)=O)n4)cc4ncccc34)n2)C[C@H](C#N)C1` [Example 227, 6-(5-{1-[cis-3-cyano-1-(cyanomethyl)cyclobutyl]-1H-pyrazol-3-yl}-1,6-naphthyridin-7-yl)-3-hydroxypyridine-2-carboxamide], the IC50 was 9.3 µM on JAK2, 1180 nM on TYK2, over 10 µM at JAK1 and over 10 µM at JAK3.

Regarding `CC(=O)Nc1cc(-c2cc3ncccc3c(-c3ccn(C4(CC#N)CN(S(C)(=O)=O)C4)n3)n2)cnc1C` [Example 228, N-[5-(5-{1-[3-(cyanomethyl)-1-(methylsulfonyl)azetidin-3-yl]-1H-pyrazol-3-yl}-1,6-naphthyridin-7-yl)-2-methylpyridin-3-yl]acetamide], the half-maximal inhibitory concentration (IC50) was 6.63 µM at JAK2, 704 nM at TYK2, 4.35 µM at JAK1 and over 10 µM at JAK3.

For the compound `CS(=O)(=O)N1CC(CC#N)(n2ccc(-c3nc(-c4cnc(N)c(N)c4)cc4ncccc34)n2)C1` [Example 229, [3-{3-[7-(5,6-diaminopyridin-3-yl)-1,6-naphthyridin-5-yl]-1H-pyrazol-1-yl}-1-(methylsulfonyl)azetidin-3-yl]acetonitrile], the IC50 is 1 µM on JAK2, 81 nM at TYK2, 2.46 µM on JAK1 and over 10 µM on JAK3.

`CS(=O)(=O)N1CC(CC#N)(n2ccc(-c3nc(-c4ccc(N)nc4N)cc4ncccc34)n2)C1` [Example 230, [3-{3-[7-(2,6-diaminopyridin-3-yl)-1,6-naphthyridin-5-yl]-1H-pyrazol-1-yl}-1-(methylsulfonyl)azetidin-3-yl]acetonitrile]: the 50% inhibitory concentration (IC50) is 0.451 µM on JAK2, 33 nM on TYK2, 1.12 µM at JAK1 and over 10 µM at JAK3.

Turning to `CC(=O)Nc1cc(-c2cc3ncccc3c(-c3ccn(C4(CC#N)CN(S(C)(=O)=O)C4)n3)n2)cnc1NC(C)=O` [Example 231, N,N′-[5-(5-{1-[3-(cyanomethyl)-1-(methylsulfonyl)azetidin-3-yl]-1H-pyrazol-3-yl}-1,6-naphthyridin-7-yl)pyridine-2,3-diyl]diacetamide], the IC50 was 7.9 µM at JAK2, 948 nM at TYK2, 5.76 µM at JAK1 and over 10 µM at JAK3.

Regarding `N#CCC1(n2ccc(-c3nc(-c4cnc5c(c4)CCC5)cc4ncccc34)n2)CN(CC(F)(F)F)C1` [Example 232], the IC50 on JAK2 is 5.82 µM; on TYK2, 1510 nM; at JAK1 it was over 10 µM; at JAK3, over 10 µM.

As for `N#CCC1(n2ccc(-c3nc(-c4cncnc4)cc4ncccc34)n2)CN(CC(F)(F)F)C1` [Example 234, [3-{3-[7-(pyrimidin-5-yl)-1,6-naphthyridin-5-yl]-1H-pyrazol-1-yl}-1-(2,2,2-trifluoroethyl)azetidin-3-yl]acetonitrile], the concentration for half-maximal inhibition (IC50) on JAK2 is over 10 µM; at TYK2, 2660 nM; at JAK1, over 10 µM; at JAK3, over 10 µM.

As for `CS(=O)(=O)N1CC(CC#N)(n2ccc(-c3nc(-c4cncnc4)cc4ncccc34)n2)C1` [Example 235, [1-(methylsulfonyl)-3-{3-[7-(pyrimidin-5-yl)-1,6-naphthyridin-5-yl]-1H-pyrazol-1-yl}azetidin-3-yl]acetonitrile], the half-inhibitory concentration (IC50) on JAK2 was over 10 µM; on TYK2, 5510 nM; at JAK1, over 10 µM; on JAK3 it was over 10 µM.

In the case of `COc1ncc(-c2cc3ncccc3c(-c3ccn(C4(CC#N)CN(CC(F)(F)F)C4)n3)n2)cn1` [Example 236, [3-{3-[7-(2-methoxypyrimidin-5-yl)-1,6-naphthyridin-5-yl]-1H-pyrazol-1-yl}-1-(2,2,2-trifluoroethyl)azetidin-3-yl]acetonitrile], the IC50 on JAK2 is over 10 µM; on TYK2 it was 2360 nM; on JAK1, over 10 µM; on JAK3, over 10 µM.

Regarding `COc1ncc(-c2cc3ncccc3c(-c3ccn(C4(CC#N)CN(S(C)(=O)=O)C4)n3)n2)cn1` [Example 237, [3-{3-[7-(2-methoxypyrimidin-5-yl)-1,6-naphthyridin-5-yl]-1H-pyrazol-1-yl}-1-(methylsulfonyl)azetidin-3-yl]acetonitrile], the 50% inhibitory concentration (IC50) was over 10 µM on JAK2, 2040 nM on TYK2, over 10 µM at JAK1 and over 10 µM on JAK3.

For `CS(=O)(=O)N1CC(CC#N)(n2ccc(-c3nc(-c4cnc(N)nc4)cc4ncccc34)n2)C1` [Example 238, [3-{3-[7-(2-aminopyrimidin-5-yl)-1,6-naphthyridin-5-yl]-1H-pyrazol-1-yl}-1-(methylsulfonyl)azetidin-3-yl]acetonitrile], the 50% inhibitory concentration (IC50) at JAK2 is 8.97 µM; on TYK2 it was 1920 nM; at JAK1, over 10 µM; on JAK3, over 10 µM.

On to `N#CC[C@]1(n2ccc(-c3nc(-c4cnnc(N)c4)cc4ncccc34)n2)C[C@H](C#N)C1` [Example 239, trans-3-{3-[7-(6-aminopyridazin-4-yl)-1,6-naphthyridin-5-yl]-1H-pyrazol-1-yl}-3-(cyanomethyl)cyclobutanecarbonitrile], for which the IC50 on JAK2 is 1.11 µM; at TYK2, 96 nM; at JAK1, 3.73 µM; on JAK3, over 10 µM.

On to `N#CC[C@]1(n2ccc(-c3nc(-c4cnnc(N)c4)cc4ncccc34)n2)C[C@@H](C#N)C1` [Example 240, cis-3-{3-[7-(6-aminopyridazin-4-yl)-1,6-naphthyridin-5-yl]-1H-pyrazol-1-yl}-3-(cyanomethyl)cyclobutanecarbonitrile], for which the IC50 at JAK2 was 0.448 µM; on TYK2 it was 48 nM; on JAK1, 1.28 µM; on JAK3, over 10 µM.

For the compound `N#CC[C@]1(n2ccc(-c3nc(-c4cc(N)cnn4)cc4ncccc34)n2)C[C@H](C#N)C1` [Example 241, trans-3-{3-[7-(5-aminopyridazin-3-yl)-1,6-naphthyridin-5-yl]-1H-pyrazol-1-yl}-3-(cyanomethyl)cyclobutanecarbonitrile], the IC50 on JAK2 is over 10 µM; at TYK2 it was 3390 nM; at JAK1, over 10 µM; at JAK3, over 10 µM.

As to `N#CC[C@]1(n2ccc(-c3nc(-c4cc(N)cnn4)cc4ncccc34)n2)C[C@@H](C#N)C1` [Example 242, cis-3-{3-[7-(5-aminopyridazin-3-yl)-1,6-naphthyridin-5-yl]-1H-pyrazol-1-yl}-3-(cyanomethyl)cyclobutanecarbonitrile], the half-maximal inhibitory concentration (IC50) was 3.77 µM on JAK2, 503 nM on TYK2, over 10 µM on JAK1 and over 10 µM on JAK3.

In the case of `N#CC[C@]1(n2ccc(-c3nc(-c4ccnc(C(N)=O)n4)cc4ncccc34)n2)C[C@H](C#N)C1` [Example 243, 4-(5-{1-[trans-3-cyano-1-(cyanomethyl)cyclobutyl]-1H-pyrazol-3-yl}-1,6-naphthyridin-7-yl)pyrimidine-2-carboxamide], the IC50 was 0.726 µM on JAK2, 48 nM on TYK2, 2.22 µM on JAK1 and over 10 µM on JAK3.

Source of the values: patent US11254668B2, “Pyrazolo[1,5-A]pyrazin-4-yl and related derivatives” (Pfizer Inc., priority 2017, dated 2022).
